In patent publication US10065990B2, “Cyclic peptide compound, and preparation method, pharmaceutical composition and use thereof” (HANGZHOU GUANYU BIO-MEDICAL CO., LTD, priority 2013, dated 2018):

Assays:
HDAC7 = target: T1, HDAC7 (Homo sapiens, UniProt Q8WUI4); experiment: HDAC biochemical activity measurement (fluorescent substrate deacetylation);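 note: fluorogenic deacetylation assay using acetyl-lysine substrate at 20 µM, enzyme and compound incubated 30 min at 37 °C, then developer added, fluorescence read at 360/460 nm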
T1 sequence (Q8WUI4 1-952): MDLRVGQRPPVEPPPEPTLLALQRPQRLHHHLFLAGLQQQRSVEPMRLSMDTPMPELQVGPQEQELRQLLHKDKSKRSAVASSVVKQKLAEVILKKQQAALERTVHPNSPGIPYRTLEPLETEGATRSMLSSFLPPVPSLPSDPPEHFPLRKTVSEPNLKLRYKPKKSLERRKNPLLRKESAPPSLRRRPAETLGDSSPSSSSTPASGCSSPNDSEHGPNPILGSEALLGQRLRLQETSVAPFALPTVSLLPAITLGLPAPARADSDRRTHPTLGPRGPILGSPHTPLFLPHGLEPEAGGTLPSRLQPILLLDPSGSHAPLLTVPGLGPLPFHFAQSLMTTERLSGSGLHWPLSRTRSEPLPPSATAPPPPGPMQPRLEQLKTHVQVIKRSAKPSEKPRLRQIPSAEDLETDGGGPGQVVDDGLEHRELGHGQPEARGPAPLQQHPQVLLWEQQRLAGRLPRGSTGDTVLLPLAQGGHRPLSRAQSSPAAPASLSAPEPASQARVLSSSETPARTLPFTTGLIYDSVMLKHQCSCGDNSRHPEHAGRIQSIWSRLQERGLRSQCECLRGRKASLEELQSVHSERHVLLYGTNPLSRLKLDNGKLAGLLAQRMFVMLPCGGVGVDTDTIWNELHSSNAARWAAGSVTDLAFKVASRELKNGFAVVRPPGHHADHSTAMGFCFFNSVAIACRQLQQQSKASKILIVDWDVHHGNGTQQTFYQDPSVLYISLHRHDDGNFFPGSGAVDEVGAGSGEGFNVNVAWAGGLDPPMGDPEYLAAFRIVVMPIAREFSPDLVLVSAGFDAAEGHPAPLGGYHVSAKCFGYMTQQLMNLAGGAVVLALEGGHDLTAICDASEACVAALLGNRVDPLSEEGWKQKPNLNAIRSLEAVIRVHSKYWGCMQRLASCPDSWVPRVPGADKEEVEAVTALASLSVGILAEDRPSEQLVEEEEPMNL

[1] = test system: A549 (human lung cancer cells); experiment: MTT cancer cell growth inhibition; type: cell-based; settings: Homo sapiens, A549, 72 h, A549 cells, MTT, 72 hours incubation; read-out: GI50 A54
Description: (§1) MTT assay principle is yellow MTT can penetrate membrane into the cell, succinic dehydrogenase of the mitochondria in living cells can make exogenous MTT reduction of insoluble in water of blue-violet acicular formazan for crystallization and deposition in the cell, crystallization can be dissolved dimethyl sulfoxide (DMSO) solution, detected its absorbance at 490 nm/570 nm wavelength by enzyme-linked immunosorbent assay, which can reflect the number of cells.
(§2) Using DMEM+10% FBS culture medium or using 1640+10% FBS culture, respectively.
(§3) a) Cells were seeded in 96-well plates with the inoculation of 1500/well, 190 μl/hole, 37° C., 5% of CO2 incubator overnight;
(§4) b) The next day each well was added 10 μl of different drugs. The final concentration of drug was 10^−5˜10^−10M, three parallel holes; 37° C., 5% CO2 culture incubator for 72 hours incubation;
(§5) c) Per well was added 20 μl 5 mg/ml of MTT, 37° C., 5% CO2 culture incubator for 4 hours incubation;
(§6) d) The supernatant was discarded. Each well was added 100 μl of DMSO and oscillation;
(§7) e) 570 nm readings. Calculate cell viability. GI50 calculation based on the results.

[2] = test system: BGC-823 (human gastric cancer cells); experiment: MTT cancer cell growth inhibition; type: cell-based; settings: Homo sapiens, BGC-823, 72 h, BGC-823 cells, MTT, 72 hours incubation; read-out: GI50 BG
Description: as §1, §2, §3, §4, §5, §6, §7

[3] = test system: Bel-7402 (human hepatoma cells); experiment: MTT cancer cell growth inhibition; type: cell-based; settings: Homo sapiens, Bel-7402, 72 h, MTT, 72 hours incubation, Bel-7402 cells; read-out: GI50 Bel-7402
Description: as §1, §2, §3, §4, §5, §6, §7

[4] = test system: DU145 (human prostate cancer cells); experiment: MTT cancer cell growth inhibition; type: cell-based; settings: Homo sapiens, DU-145, 72 h, DU145 cells, MTT, 72 hours incubation; read-out: GI50 Du1
Description: as §1, §2, §3, §4, §5, §6, §7

[5] = test system: H1975 (non-small cell lung adenocarcinoma); experiment: MTT cancer cell growth inhibition; type: cell-based; settings: Homo sapiens, NCI-H1975, 72 h, MTT, 72 hours incubation, H1975 cells; read-out: GI50 H1975
Description: as §1, §2, §3, §4, §5, §6, §7

[6] = test system: HCC827 (human non-small cell lung cancer cells); experiment: MTT cancer cell growth inhibition; type: cell-based; settings: Homo sapiens, HCC827, 72 h, MTT, 72 hours incubation, HCC827 cells; read-out: GI50 HCC827
Description: as §1, §2, §3, §4, §5, §6, §7

[7] = test system: HT1080 (human fibrosarcoma cells); experiment: MTT cancer cell growth inhibition; type: cell-based; settings: Homo sapiens, HT-1080, 72 h, HT1080 cells, MTT, 72 hours incubation; read-out: GI50 HT1
Description: as §1, §2, §3, §4, §5, §6, §7

[8] = test system: Hela (human cervical cancer cells); experiment: MTT cancer cell growth inhibition; type: cell-based; settings: Homo sapiens, HeLa, 72 h, Hela cells, MTT, 72 hours incubation; read-out: GI50 Hela
Description: as §1, §2, §3, §4, §5, §6, §7

[9] = test system: Huh-7 (human hepatoma cells); experiment: MTT cancer cell growth inhibition; type: cell-based; settings: Homo sapiens, Huh-7, 72 h, MTT, 72 hours incubation, Huh-7 cells; read-out: GI50 Huh-7
Description: as §1, §2, §3, §4, §5, §6, §7

[10] = test system: K562 (human leukemia cells); experiment: MTT cancer cell growth inhibition; type: cell-based; settings: Homo sapiens, K562, 72 h, MTT, 72 hours incubation, K562 cells; read-out: GI50 K562
Description: as §1, §2, §3, §4, §5, §6, §7

[11] = test system: KBM-5 (human chronic myelogenous leukemia); experiment: MTT cancer cell growth inhibition; type: cell-based; settings: Homo sapiens, KBM5, 72 h, MTT, 72 hours incubation, KBM-5 cells; read-out: GI50 KBM-5
Description: as §1, §2, §3, §4, §5, §6, §7

[12] = test system: KBM5-T315I (human chronic myelogenous leukemia); experiment: MTT cancer cell growth inhibition; type: cell-based; settings: Homo sapiens, 72 h, MTT, 72 hours incubation, KBM5-T315I cells; read-out: GI50 KBM5-T315I
Description: as §1, §2, §3, §4, §5, §6, §7

[13] = test system: MCF-7 (human breast cancer cells); experiment: MTT cancer cell growth inhibition; type: cell-based; settings: Homo sapiens, MCF7, 72 h, MCF-7 cells, 72 hours incubation, read-out: GI50 MCF
Description: as §1, §2, §3, §4, §5, §6, §7

[14] = test system: MDA-MB-231 (breast cancer cells); experiment: MTT cancer cell growth inhibition; type: cell-based; settings: Homo sapiens, MDA-MB-231, 72 h, read-out: GI50 MDA-MB-231, MTT, 72 hours incubation, MDA-MB-231 cells
Description: as §1, §2, §3, §4, §5, §6, §7

[15] = test system: MOLT-4 (human acute lymphoblastic leukemia cells); experiment: MTT cancer cell growth inhibition; type: cell-based; settings: Homo sapiens, MOLT-4, 72 h, MOLT-4 cells, MTT, 72 hours incubation; read-out: GI50 Mol
Description: as §1, §2, §3, §4, §5, §6, §7

[16] = test system: N-87 (human gastric cancer cells); experiment: MTT cancer cell growth inhibition; type: cell-based; settings: Homo sapiens, 72 h, MTT, 72 hours incubation, N-87 cells; read-out: GI50 N-87
Description: as §1, §2, §3, §4, §5, §6, §7

[17] = test system: PANC-1 (Pac-1, human pancreatic cancer cells); experiment: MTT cancer cell growth inhibition; type: cell-based; settings: Homo sapiens, PANC-1, 72 h, PANC-1 cells, MTT, 72 hours incubation; read-out: GI50 PAN
Description: as §1, §2, §3, §4, §5, §6, §7

[18] = test system: SGC-7901 (human gastric cancer cells); experiment: MTT cancer cell growth inhibition; type: cell-based; settings: Homo sapiens, SGC-7901, 72 h, MTT, 72 hours incubation, SGC-7901 cells; read-out: GI50 SGC-7901
Description: as §1, §2, §3, §4, §5, §6, §7

[19] = test system: U937 (human leukemia cells); experiment: MTT cancer cell growth inhibition; type: cell-based; settings: Homo sapiens, U-937, 72 h, U937 cells, MTT, 72 hours incubation; read-out: GI50 U93
Description: as §1, §2, §3, §4, §5, §6, §7

[20] = test system: lncap (prostate cancer cells); experiment: MTT cancer cell growth inhibition; type: cell-based; settings: Homo sapiens, LNCaP, 72 h, lncap cells, MTT, 72 hours incubation; read-out: GI50 lnca
Description: as §1, §2, §3, §4, §5, §6, §7

GI50 [1] [nM]	GI50 [2] [nM]	GI50 [3] [nM]	GI50 [4] [nM]	GI50 [5] [nM]	GI50 [6] [nM]	GI50 [7] [nM]	GI50 [8] [nM]	GI50 [9] [nM]	GI50 [10] [nM]	GI50 [11] [nM]	GI50 [12] [nM]	GI50 [13] [nM]	GI50 [14] [nM]	GI50 [15] [nM]	GI50 [16] [nM]	GI50 [17] [nM]	GI50 [18] [nM]	GI50 [19] [nM]	GI50 [20] [nM]	SMILES	other results
40	60	31	60	18	35	60	40	46	78	53	42	50	81	40	64	10	87	40	10	C/C=C1\NC(=O)c2cc(SCC)cc(n2)CNC(=O)C[C@@H](/C=C/CCSC(=O)CCCCC)OC(=O)[C@H](C(C)C)NC1=O [Compound 254]	IC50 (μM) HDAC7 (HDAC7): no activity
30	80	23	40	65	23	60	30	22	35	53	26	40	73	30	77	30	43	20	30	C/C=C1\NC(=O)c2ccc(SC)c(n2)CNC(=O)C[C@@H](/C=C/CCSC(C)=O)OC(=O)[C@H](Cc2ccc(O)cc2)NC1=O [Compound 203]	IC50 HDAC7 (HDAC7; HDAC7, 37° C. 30 minutes): no activity
